The subject of one assay is IL1-β release upon NLRP3 activation in peripheral blood mononuclear cells (PBMC). Kind of assay: PBMC IC50 determination assay (IL1-β release, ELISA). The format is cell-based. Conditions: Homo sapiens, PBMC, read-out: PBMCs, IC50, µM. As for the experimental part: PBMC IC50 determination assay
The compounds of the present invention were tested for their inhibitory activity against IL1-β release upon NLRP3 activation in peripheral blood mononuclear cells (PBMC).
PBMC were isolated from buffy coats by density gradient centrifugation on Histopaque-1077 (Sigma, cat no. 10771). Isolated cells were seeded into the wells of a 96-well plate and incubated for 3 h with lipopolysaccharide (LPS). Following medium exchange, the compounds of the present invention were added (a single compound per well) and the cells were incubated for 30 min. Next, the cells were stimulated with nigericin (10 µM) for 1 h and the cell culture media from the wells were collected for further analysis.
The release of IL1-β into the media was determined by a quantitative detection of IL1-β in the media using an IL-1β enzyme-linked immunosorbent assay (ELISA) Ready-SET-Go!, eBioscience cat. No. 88-7261-88. Briefly, in a first step, high affinity binding plates (Coming, Costar 9018 or NUNC Maxisorp Cat No. 44-2404) were coated overnight at 4°C with specific capture antibody included in the kit (anti-human IL-1β ref. 14-7018-68). Subsequently, plates were blocked with blocking buffer for 1 h at room temperature (rt) and after washing with a buffer (PBS with 0,05% Tween-20) incubated with protein standard and culture media. After 2 h of incubation at rt, plates were washed and incubated with biotinylated detection antibody included in the kit (anti-human IL-1β Biotin ref. 33-7110-68) for 1 h at rt. Plates were washed and incubated with HRP-streptavidin for 30 min at rt and washed again. The signal was developed after addition of 3,39,5,59-tetramethylbenzidine-peroxidase (TMB) until color appeared and the reaction was stopped by 2 N H2SO4. A microplate spectrophotometer (BioTek) was used to detect signals with […]. The detection range of IL1-β ELISA was […].
On the technique in general: An ELISA detects its analyte on a solid surface through an enzyme-linked reagent.
The term IC50 denotes the midpoint of a concentration-inhibition curve. On to `CC(=O)c1ccn(S(=O)(=O)NC(=O)Nc2c3c(c(Cl)c4c2CCC4)CCC3)c1` [Example 1I], for which the half-inhibitory concentration (IC50) is 0.91 µM.

Turning to `O=C(Nc1c2c(cc3c1CCC3)CCC2)NS(=O)(=O)n1ccc(C(=O)C(F)(F)F)c1` [Example 1L], the IC50 is 0.074 µM.

Regarding `O=C(Nc1c2c(cc3c1CCC3)CCC2)NS(=O)(=O)n1ccc2ccccc21` [Example 1A], the IC50 is 1.05 µM.

`CC(=O)c1ccn(S(=O)(=O)NC(=O)Nc2c3c(cc4c2CCC4)CCC3)c1` [Example 1B]: the 50% inhibitory concentration (IC50) came to 1.27 µM.

With `O=C(Nc1c2c(cc3c1CCC3)CCC2)NS(=O)(=O)n1cccc1` [Example 1K], the half-maximal inhibitory concentration (IC50) was determined as 1.4 µM.

Regarding `CC(=O)c1cn(S(=O)(=O)NC(=O)Nc2c3c(cc4c2CCC4)CCC3)cc1-c1ccccc1` [Example 1T, 3=[(3-acetyl-4-phenyl-1H-pyrrol-1-yl)sulfonyl]-1-(1,2,3,5,6,7-hexahydro-s-indacen-4-yl)-3-sodiourea propan-2-ol solvate], the IC50 came to 4.76 µM.

Regarding `O=C(Nc1c2c(cc3c1CCC3)CCC2)NS(=O)(=O)n1cc2c(c1)C(=O)CC2` [Example 1O], the IC50 was determined as 4.13 µM.

In the case of `O=C(Nc1c2c(cc3c1CCC3)CCC2)NS(=O)(=O)n1ccc(C2CC2)c1` [Example 1F], the IC50 worked out at 0.4 µM.

Regarding `O=C(Nc1cc2c(c3c1CCCC3)CCC2)NS(=O)(=O)n1ncc2ccccc21` [Example 1N, 3-{1H,2H,3H,6H,7H,8H,9H -cyclopenta[a]naphthalen-5-yl}-1-(H-indazole-1-sulfonyl)-1-sodiourea], the IC50 amounted to 2.03 µM.

Regarding `O=C(Nc1c2c(cc3c1CCC3)CCC2)NS(=O)(=O)n1ccc2ncccc21` [Example 1D], the IC50 worked out at 10.5 µM.

As to `O=C(Nc1cc2c(c3c1CCC3)CCC2)NS(=O)(=O)n1ccc(C(=O)C(F)(F)F)c1` [Example 1Q], the half-inhibitory concentration (IC50) came to 0.33 µM.

`O=C(Nc1c2c(cc3c1CCC3)CCC2)NS(=O)(=O)n1ccc([N+](=O)[O-])c1` [Example 1J]: the IC50 turned out to be 26.8 µM.

As to `O=C(Nc1c2c(cc3c1CCC3)CCC2)NS(=O)(=O)n1ccc2ccncc21` [Example 1H], the half-inhibitory concentration (IC50) is 4.93 µM.

Take `O=C(Nc1c2c(cc3c1CCC3)CCCC2)NS(=O)(=O)n1ncc2ccccc21` [Example 1M]: the IC50 was determined as 4.62 µM.

For the compound `O=C(Nc1c2c(cc3c1CCC3)CCC2)NS(=O)(=O)n1ncc2ccccc21` [Example 1E], the 50% inhibitory concentration (IC50) came out at 1 µM.

With `CCC(=O)c1ccn(S(=O)(=O)NC(=O)Nc2c3c(cc4c2CCC4)CCC3)c1` [Example 1G], the IC50 turned out to be 5 µM.

Turning to `O=C(Nc1c2c(cc3c1CCC3)CCC2)NS(=O)(=O)n1ccc(C(=O)c2ccccc2)c1` [Example 1P], the IC50 was determined as 2.91 µM.

For the compound `COC(=O)c1ccn(S(=O)(=O)NC(=O)Nc2c3c(cc4c2CCC4)CCC3)c1` [Example 1C], the half-maximal inhibitory concentration (IC50) was 4.07 µM.

In the case of `CC(C)(O)c1ccn(S(=O)(=O)NC(=O)Nc2c3c(cc4c2CCC4)CCC3)c1` [Example 3A], the concentration for half-maximal inhibition (IC50) is 0.66 µM.

The same assay, now with this note: Homo sapiens; PBMC primed 3 h with LPS, compound 30 min, nigericin (10 µM) 1 h; IL1-β in media by ELISA; values with * are mean values based on 2-6 measurements, all others single measurements; read-out: PBMCs, IC50.
As to `O=C(Nc1c2c(cc3c1CCC3)CCC2)NS(=O)(=O)n1cc2c(c1)C(=O)CCC2` [Example 1R, ammonium [(1,2,3,5,6,7-hexahydro-s-indacen-4-yl)carbamoyl][(4-oxo-4,5,6,7-tetrahydro-2H-isoindol-2-yl)sulfonyl]azanide], the IC50 is 1.27 µM.

Consider `Cc1cccn1S(=O)(=O)NC(=O)Nc1c2c(cc3c1CCC3)CCC2` [Example 1S, ammonium [(1,2,3,5,6,7-hexahydro-s-indacen-4-yl)carbamoyl][(2-methyl-1H-pyrrol-1-yl)sulfonyl]azanide], for which the half-inhibitory concentration (IC50) came out at 0.27 µM.

On to `O=C(Nc1cc2c(c3c1CCC3)CCC2=O)NS(=O)(=O)n1ccc(C(=O)C(F)(F)F)c1` [Example 1U, ammonium [(6-oxo-1,2,3,6,7,8-hexahydroas-indacen-4-yl)carbamoyl]({[3-(trifluoroacetyl)-1H-pyrrol-1-yl]sulfonyl})azanide], for which the IC50 is 1.82 µM.

`O=C(Nc1c2c(cc3c1CCC3)CCC2)NS(=O)(=O)n1ccc(C(O)C(F)(F)F)c1` (stereo not shown) [Example 2B, 3-(1,2,3,5,6,7-hexahydro-s-indacen-4-yl)-1-{[3-(2,2,2-trifluoro-1-hydroxyethyl)-1H-pyrrol-1-yl]sulfonyl}urea]: the 50% inhibitory concentration (IC50) amounted to 0.98 µM.

With `CC(O)c1ccn(S(=O)(=O)NC(=O)Nc2c3c(cc4c2CCC4)CCC3)c1` (stereo not shown) [Example 2A, 3-(1,2,3,5,6,7-hexahydro-s-indacen-4-yl)-1-{[3-(1-hydroxyethyl)-1H-pyrrol-1-yl]sulfonyl}urea], the half-inhibitory concentration (IC50) stood at 1.97 µM.

On to `C=C(C)c1ccn(S(=O)(=O)NC(=O)Nc2c3c(cc4c2CCC4)CCC3)c1` [Example 4A, 3-(1,2,3,5,6,7-hexahydro-s-indacen-4-yl)-1-{[3-(prop-1-en-2-yl)-1H-pyrrol-1-yl]sulfonyl}urea], for which the IC50 was 0.81 µM.
